Data on two molecules can be found in US20220273005A1, “METHOD OF INDUCING BACTERIAL HEAT SENSITIVITY” (THE STATE OF ISRAEL, MINISTRY OF AGRICULTURE & RURAL …, priority 2019, published 2022).

Test [1] deals with Bacillus subtilis wt. Conditions: wt strain with Mg2+ ions; previously shown; cited from earlier work.
The test system of test [2] is Bacillus subtilis wt. Conditions: wt strain with Mg2+ ions; previously shown; cited from earlier work. This is another data set of the same source.
Test [3] deals with Bacillus subtilis ΔclsA and ΔclsB mutants. The test is described as follows: Rescue of the biofilm phenotype of the cls mutants by added CL. Conditions: 10-fold serial dilutions of CL in the medium; data not shown. In kind it is cell-based. On the procedure: Three kinds of biofilms were tested—colony type, pellicle and bundles. For colony type—bacteria were grown in LB medium for 5h and then 3-5 μl of the culture were spotted on an LB-GM (1% tryptone, 0.5% yeast extract, 0.5% NaCl, 1% glycerol, 0.1 mM MnSO4 and 2% agar) (Difco) or modified MRS (MMRS—MRS pH 7) (Man, Rogosa & Sharpe) (Hy-labs) plates. Once the spotted drops were soaked into the medium, the plates were incubated upside down at 30° C. for 72 h. For pellicle biofilm formation 24-well plates were used. Bacteria were grown in LB medium for 5 h and then the culture was diluted 1:1000 into MMRS. Next, plates were incubated at 30° C., 20 rpm for 48 h. For the experiments with supplementation of CL, 0-100 μM CL dissolved in chloroform was added (final concentration of chloroform was 0.2%). For bundle type biofilm, a starter culture was prepared using a single bacterial colony inoculated into 5 ml of LB medium overnight at 30° C., 150 rpm. Next, bacteria were diluted 1:100 into fresh MMRS at 37° C., 25 rpm and after 5-7 h a 1 ml sample was taken and washed twice with sterile water. For longer incubation times, a starter culture was prepared using a single bacterial colony inoculated into 3 ml of LB medium for 5 h at 37° C., 150 rpm. Next, bacteria were diluted 1:100 into fresh MMRS at 23° C., 25 rpm overnight. The samples were visualized by fluorescence microscopy. […]

Test [4] concerns B. subtilis (WT 3610). The test is described as follows: Combined effect of CL and surfactin on pellicle formation, NAO staining. Conditions: high concentration (50 μM), about 20 h, FIG. 6. In kind it is cell-based, Bacillus subtilis. On the procedure: (§1) For visualization of bundle type biofilm a 1 ml sample was taken and washed twice with sterile water. Next Nonyl Acridine Orange (NAO) (Invitrogen A1372) was added to a final concentration of 100 nM for a 20 minutes incubation at room temperature. Next 3-7 μl from each sample were loaded on a microscopy glass slide. The samples were visualized using a fluorescent microscope in a transmitted light microscope using differential interference contrast (DIC) and 426-450 nm laser for CFP excitation (for visualization of YC189) or 457 nm-487 nm laser for GFP excitation (for visualization of NAO stained samples) (Nikon Eclipse Ti2).
B. subtilis (WT 3610) was grown for 5 h at 37° C., 150 rpm according to the conditions described above. Then 2 μl of bacteria were added to 1 ml LBG accompanied by solutions with different concentrations of CL and surfactin. After about 20 h the samples were stained with NAO (according to the protocol described herein), which was added to the unwashed samples. Finally, the samples were washed after the staining and the pellicle formation was tested.

Test [5] concerns Bacillus subtilis NCIB 3610 pellicle biofilm. The test is described as follows: Pellicle biofilm formation with CL added to the medium. In kind it is cell-based. Conditions: FIG. 5A. On the procedure: Three kinds of biofilms were tested—colony type, pellicle and bundles. For colony type—bacteria were grown in LB medium for 5h and then 3-5 μl of the culture were spotted on an LB-GM (1% tryptone, 0.5% yeast extract, 0.5% NaCl, 1% glycerol, 0.1 mM MnSO4 and 2% agar) (Difco) or modified MRS (MMRS—MRS pH 7) (Man, Rogosa & Sharpe) (Hy-labs) plates. Once the spotted drops were soaked into the medium, the plates were incubated upside down at 30° C. for 72 h. For pellicle biofilm formation 24-well plates were used. Bacteria were grown in LB medium for 5 h and then the culture was diluted 1:1000 into MMRS. […] For the experiments with supplementation of CL, 0-100 μM CL dissolved in chloroform was added (final concentration of chloroform was 0.2%). For bundle type biofilm, a starter culture was prepared using a single bacterial colony inoculated into 5 ml of LB medium overnight at 30° C., 150 rpm. Next, bacteria were diluted 1:100 into fresh MMRS at 37° C., 25 rpm and after 5-7 h a 1 ml sample was taken and washed twice with sterile water. For longer incubation times, a starter culture was prepared using a single bacterial colony inoculated into 3 ml of LB medium for 5 h at 37° C., 150 rpm. Next, bacteria were diluted 1:100 into fresh MMRS at 23° C., 25 rpm overnight. The samples were visualized by fluorescence microscopy.

Test [6] has as its system Bacillus subtilis YC189 (PtapA-cfp) bundle biofilm. The test is described as follows: Bundle biofilm formation and tapA promoter (PtapA-cfp) activity with CL added, fluorescence microscopy. In kind it is cell-based. On the procedure: Three kinds of biofilms were tested—colony type, pellicle and bundles. For colony type—bacteria were grown in LB medium for 5h and then 3-5 μl of the culture were spotted on an LB-GM (1% tryptone, 0.5% yeast extract, 0.5% NaCl, 1% glycerol, 0.1 mM MnSO4 and 2% agar) (Difco) or modified MRS (MMRS—MRS pH 7) (Man, Rogosa & Sharpe) (Hy-labs) plates. Once the spotted drops were soaked into the medium, the plates were incubated upside down at 30° C. for 72 h. For pellicle biofilm formation 24-well plates were used. Bacteria were grown in LB medium for 5 h and then the culture was diluted 1:1000 into MMRS. Next, plates were incubated at 30° C., 20 rpm for 48 h. For the experiments with supplementation of CL, 0-100 μM CL dissolved in chloroform was added (final concentration of chloroform was 0.2%). For bundle type biofilm, a starter culture was prepared using a single bacterial colony inoculated into 5 ml of LB medium overnight at 30° C., 150 rpm. Next, bacteria were diluted 1:100 into fresh MMRS at 37° C., 25 rpm and after 5-7 h a 1 ml sample was taken and washed twice with sterile water. For longer incubation times, a starter culture was prepared using a single bacterial colony inoculated into 3 ml of LB medium for 5 h at 37° C., 150 rpm. Next, bacteria were diluted 1:100 into fresh MMRS at 23° C., 25 rpm overnight. The samples were visualized by fluorescence microscopy.
as §1

The mark [7] stands for this setting: CL 10 μM and 100 μM, after 12 h, YC189, FIG. 5B.

For `[Mg+2]` [Mg^2+ ions], the “sensitivity to heat treatments” value in test [1] was “more sensitive to heat treatments”. Besides, in test [2], the biofilm formation entry is reported as “biofilm is not formed”.

For the molecule cardiolipin [CL], the “rescue of the mutants' biofilm phenotype” value in test [3] is “not able to rescue”. For the same molecule, in test [4], the “string-like structures connecting the bacteria” value is on record as “string-like structures connecting the bacteria have been observed”. Moreover, the “biofilm formation (pellicle)” value in test [5] (CL 50 μM, 18 h post treatment) was “reduced biofilm formation”. Also, in test [5] (CL 5-50 μM, after 18 hours), the pellicle biofilm formation entry is given as “delay in pellicle biofilm formation”. For the same molecule, the “biofilm (bundle) formation” value in test [6] (setting [7]) is given as “biofilm is not formed”; in test [6] (high concentrations of CL, after 18 h, YC189, FIG. 5C), “bundles start to form”. In addition, the “stimulation of the tapA operon (PtapA-cfp)” value in test [6] (setting [7]) is “not stimulated”. In addition, in test [6] (CL 10 μM, after 18 h, YC189, FIG. 5C), the biofilm formation result is listed as “substantially reduced”.
